The conditions of data set [1]: amide bond, 24-membered ring, 3 steps.
The next data set concerns the target T1, RyR2 (Mus musculus, UniProt E9Q401).
T1 construct: ventricular cardiomyocytes were isolated from C57Bl/6J mice, adhered to laminin-coated glass bottom culture dishes, permeabilized with saponin; endogenous in cells; host or cells: left ventricular cardiomyocytes freshly isolated from C57BL/6J mice, saponin-permeabilized
The note with it: 25 μM drug, normalized to vehicle (DMSO), mean ± standard deviation, ref Johnston et al. ACS Med. Chem. Lett., 2022, 13(11), 1755–1762, cited from earlier work; for Normalized Calcium Leak: CSV supplement, ent-verticilide and Series 1; for Calcium spark Amplitude (normalized to vehicle) / Calcium spark Leak (normalized to vehicle) / Calcium spark Mass (normalized to vehicle) / Calcium spark Frequency (normalized to vehicle): Supplement Table 1; for Calcium spark Amplitude (normalized to vehicle) / Calcium spark Leak (normalized to vehicle) / Calcium spark Mass (normalized to vehicle): permeabilized murine cardiomyocytes; for Calcium spark Frequency (normalized to vehicle): permeabilized murine left ventricular myocytes, 15 min incubation. On the procedure:
Supplement jm4c00923_si_002.csv, table | column: Normalized Calcium Leak || page 10: Johnston et al. Supporting Information mouse variability provided by Sikkel et al.5 Bonferroni-adjusted P values are reported in the figure legends. A cutoff value of 0.05 was used as the threshold to reject the null hypothesis. Safety: No unexpected or unusually high safety hazards were encountered. Biological Experiment Data: Calcium spark parameters For all series, assay is run with 25 μM solution of drug. Values are normalized to the vehicle (DMSO) condition and reported as mean ± standard deviation. Statistical comparisons were made using a hierarchical clustering model with Bonf ...

Setting [2] is: the molecule shown is the open-chain precursor.
[3] abbreviates: the molecule shown is the open-chain precursor, PyBOP.

This is an account of results in PMC11284792, “Backbone-Determined Antiarrhythmic Structure–Activity Relationships for a Mirror Image, Oligomeric Depsipeptide Natural Product” (Journal of Medicinal Chemistry, 2024).

Read-outs that look alike come from different tables or passages of the source.

T1 sequence (E9Q401 whole entry): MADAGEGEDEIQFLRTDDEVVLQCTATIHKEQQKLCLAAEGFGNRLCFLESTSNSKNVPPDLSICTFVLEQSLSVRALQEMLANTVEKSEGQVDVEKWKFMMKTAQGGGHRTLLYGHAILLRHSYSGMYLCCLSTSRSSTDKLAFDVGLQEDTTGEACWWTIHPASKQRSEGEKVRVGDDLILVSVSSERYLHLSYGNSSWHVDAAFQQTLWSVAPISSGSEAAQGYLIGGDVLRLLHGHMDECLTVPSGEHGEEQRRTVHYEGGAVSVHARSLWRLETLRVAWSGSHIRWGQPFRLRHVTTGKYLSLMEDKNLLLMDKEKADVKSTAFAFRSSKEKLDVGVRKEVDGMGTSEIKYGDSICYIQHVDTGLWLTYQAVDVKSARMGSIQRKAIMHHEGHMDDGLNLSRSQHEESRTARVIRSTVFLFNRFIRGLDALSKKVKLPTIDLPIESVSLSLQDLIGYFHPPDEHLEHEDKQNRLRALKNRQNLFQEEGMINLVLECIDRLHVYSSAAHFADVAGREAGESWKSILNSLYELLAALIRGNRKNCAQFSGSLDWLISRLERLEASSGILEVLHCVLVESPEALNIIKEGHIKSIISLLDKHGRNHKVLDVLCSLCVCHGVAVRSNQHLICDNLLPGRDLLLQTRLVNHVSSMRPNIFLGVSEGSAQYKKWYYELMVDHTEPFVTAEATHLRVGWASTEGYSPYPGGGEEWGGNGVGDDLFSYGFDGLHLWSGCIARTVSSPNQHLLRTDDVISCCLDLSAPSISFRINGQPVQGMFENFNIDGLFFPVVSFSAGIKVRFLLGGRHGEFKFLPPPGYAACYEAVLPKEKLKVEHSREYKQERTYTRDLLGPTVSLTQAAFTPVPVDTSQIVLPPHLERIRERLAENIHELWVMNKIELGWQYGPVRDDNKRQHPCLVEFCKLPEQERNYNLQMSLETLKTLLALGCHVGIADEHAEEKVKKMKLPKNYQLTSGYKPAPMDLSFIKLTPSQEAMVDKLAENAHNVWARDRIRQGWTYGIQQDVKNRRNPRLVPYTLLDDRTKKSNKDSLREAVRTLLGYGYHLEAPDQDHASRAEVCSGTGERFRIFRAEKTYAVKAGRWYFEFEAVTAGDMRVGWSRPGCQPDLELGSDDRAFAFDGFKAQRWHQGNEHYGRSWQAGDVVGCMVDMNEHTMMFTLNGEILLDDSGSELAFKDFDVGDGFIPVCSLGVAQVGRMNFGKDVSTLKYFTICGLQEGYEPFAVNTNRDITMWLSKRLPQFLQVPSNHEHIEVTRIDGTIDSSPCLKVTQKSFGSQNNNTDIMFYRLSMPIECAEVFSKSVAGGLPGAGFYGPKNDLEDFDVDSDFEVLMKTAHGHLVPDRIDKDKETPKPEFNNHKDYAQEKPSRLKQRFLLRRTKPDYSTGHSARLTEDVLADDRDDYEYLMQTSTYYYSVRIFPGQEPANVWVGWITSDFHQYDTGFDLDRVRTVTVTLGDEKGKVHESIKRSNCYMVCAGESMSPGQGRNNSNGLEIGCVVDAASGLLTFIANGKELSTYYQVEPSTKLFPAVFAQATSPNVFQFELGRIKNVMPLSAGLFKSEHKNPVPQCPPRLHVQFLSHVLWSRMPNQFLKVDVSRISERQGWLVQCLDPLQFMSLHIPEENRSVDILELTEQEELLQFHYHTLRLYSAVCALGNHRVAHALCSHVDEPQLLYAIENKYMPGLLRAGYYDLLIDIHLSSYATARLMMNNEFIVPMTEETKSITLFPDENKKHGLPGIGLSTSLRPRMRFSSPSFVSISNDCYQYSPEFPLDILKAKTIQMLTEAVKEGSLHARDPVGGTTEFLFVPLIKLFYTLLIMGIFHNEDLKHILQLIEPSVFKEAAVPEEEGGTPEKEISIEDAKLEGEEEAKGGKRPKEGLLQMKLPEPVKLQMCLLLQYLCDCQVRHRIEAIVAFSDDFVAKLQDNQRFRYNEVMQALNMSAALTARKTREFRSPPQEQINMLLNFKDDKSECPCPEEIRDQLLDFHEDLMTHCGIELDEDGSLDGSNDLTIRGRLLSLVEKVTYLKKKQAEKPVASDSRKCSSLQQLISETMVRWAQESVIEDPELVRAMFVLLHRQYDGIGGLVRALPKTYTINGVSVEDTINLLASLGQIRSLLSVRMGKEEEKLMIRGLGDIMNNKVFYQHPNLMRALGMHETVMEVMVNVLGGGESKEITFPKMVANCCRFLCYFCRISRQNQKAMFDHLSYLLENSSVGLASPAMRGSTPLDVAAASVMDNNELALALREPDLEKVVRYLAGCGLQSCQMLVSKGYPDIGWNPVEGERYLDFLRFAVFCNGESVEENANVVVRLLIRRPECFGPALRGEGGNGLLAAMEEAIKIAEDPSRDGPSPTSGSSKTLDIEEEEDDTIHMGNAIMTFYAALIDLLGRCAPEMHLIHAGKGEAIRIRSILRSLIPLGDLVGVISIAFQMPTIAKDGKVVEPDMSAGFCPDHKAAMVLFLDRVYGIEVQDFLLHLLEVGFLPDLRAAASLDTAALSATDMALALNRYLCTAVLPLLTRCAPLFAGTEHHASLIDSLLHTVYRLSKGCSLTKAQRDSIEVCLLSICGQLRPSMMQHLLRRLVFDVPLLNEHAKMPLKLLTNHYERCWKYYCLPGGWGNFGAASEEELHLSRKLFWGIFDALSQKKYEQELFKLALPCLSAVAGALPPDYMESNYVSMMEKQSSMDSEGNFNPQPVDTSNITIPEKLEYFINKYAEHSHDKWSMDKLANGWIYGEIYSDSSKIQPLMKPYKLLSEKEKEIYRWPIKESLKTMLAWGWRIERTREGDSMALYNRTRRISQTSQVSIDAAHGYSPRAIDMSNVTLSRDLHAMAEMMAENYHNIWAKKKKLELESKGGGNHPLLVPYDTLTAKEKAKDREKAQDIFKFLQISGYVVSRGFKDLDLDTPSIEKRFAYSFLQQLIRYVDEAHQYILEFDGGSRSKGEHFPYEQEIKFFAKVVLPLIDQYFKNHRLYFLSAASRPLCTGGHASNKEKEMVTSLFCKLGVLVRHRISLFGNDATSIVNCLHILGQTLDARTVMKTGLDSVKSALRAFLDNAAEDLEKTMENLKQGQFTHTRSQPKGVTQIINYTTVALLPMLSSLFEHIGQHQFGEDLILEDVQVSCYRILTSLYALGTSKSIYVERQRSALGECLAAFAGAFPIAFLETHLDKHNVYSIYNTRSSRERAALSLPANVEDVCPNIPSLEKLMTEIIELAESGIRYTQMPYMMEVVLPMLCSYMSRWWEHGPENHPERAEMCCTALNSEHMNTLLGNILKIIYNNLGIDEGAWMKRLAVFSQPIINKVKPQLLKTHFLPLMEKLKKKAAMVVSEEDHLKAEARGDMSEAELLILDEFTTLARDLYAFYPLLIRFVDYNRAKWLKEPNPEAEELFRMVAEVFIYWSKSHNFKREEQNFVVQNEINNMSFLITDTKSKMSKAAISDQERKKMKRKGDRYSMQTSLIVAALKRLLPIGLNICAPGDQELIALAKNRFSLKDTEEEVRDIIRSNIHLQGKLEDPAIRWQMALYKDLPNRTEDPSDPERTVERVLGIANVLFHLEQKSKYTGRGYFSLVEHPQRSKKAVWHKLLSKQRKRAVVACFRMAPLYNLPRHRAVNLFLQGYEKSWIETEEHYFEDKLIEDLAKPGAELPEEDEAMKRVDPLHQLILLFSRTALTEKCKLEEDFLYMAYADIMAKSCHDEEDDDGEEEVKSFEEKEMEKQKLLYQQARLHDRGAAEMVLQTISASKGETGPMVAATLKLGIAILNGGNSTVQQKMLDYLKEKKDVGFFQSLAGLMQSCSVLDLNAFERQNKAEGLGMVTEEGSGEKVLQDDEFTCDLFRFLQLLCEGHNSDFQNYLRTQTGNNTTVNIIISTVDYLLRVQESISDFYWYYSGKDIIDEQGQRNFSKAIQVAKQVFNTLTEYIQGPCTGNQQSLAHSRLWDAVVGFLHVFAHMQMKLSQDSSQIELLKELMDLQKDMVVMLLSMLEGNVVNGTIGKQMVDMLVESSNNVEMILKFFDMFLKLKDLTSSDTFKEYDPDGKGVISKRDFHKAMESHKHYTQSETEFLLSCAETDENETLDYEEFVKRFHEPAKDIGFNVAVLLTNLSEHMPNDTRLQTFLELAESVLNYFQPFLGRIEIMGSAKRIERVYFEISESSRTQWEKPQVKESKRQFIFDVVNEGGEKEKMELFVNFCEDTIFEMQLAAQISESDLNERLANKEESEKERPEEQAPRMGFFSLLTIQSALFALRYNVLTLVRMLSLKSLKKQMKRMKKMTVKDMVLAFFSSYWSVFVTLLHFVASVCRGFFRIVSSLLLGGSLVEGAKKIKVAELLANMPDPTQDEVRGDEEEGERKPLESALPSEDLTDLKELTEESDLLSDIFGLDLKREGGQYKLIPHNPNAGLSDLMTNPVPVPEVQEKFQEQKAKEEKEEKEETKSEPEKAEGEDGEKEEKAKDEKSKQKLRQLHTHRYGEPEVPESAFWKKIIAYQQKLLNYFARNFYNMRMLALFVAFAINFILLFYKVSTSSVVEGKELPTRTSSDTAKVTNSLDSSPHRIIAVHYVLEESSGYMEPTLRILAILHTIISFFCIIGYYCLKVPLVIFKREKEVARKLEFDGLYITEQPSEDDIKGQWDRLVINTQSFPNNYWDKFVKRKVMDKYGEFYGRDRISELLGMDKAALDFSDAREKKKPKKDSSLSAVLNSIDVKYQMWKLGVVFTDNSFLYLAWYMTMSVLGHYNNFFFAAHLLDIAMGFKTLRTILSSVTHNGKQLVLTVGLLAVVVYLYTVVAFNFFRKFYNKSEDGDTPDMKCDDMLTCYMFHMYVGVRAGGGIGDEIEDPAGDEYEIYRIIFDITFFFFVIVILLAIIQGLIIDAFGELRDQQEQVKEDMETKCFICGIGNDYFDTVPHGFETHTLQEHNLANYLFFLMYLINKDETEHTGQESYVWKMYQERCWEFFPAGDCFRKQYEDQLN

Consider “(3R,6S,9R,12S,15R,18S,21R,24S)-3,4,7,9,10,13,15,16,19,21,22-undecamethyl-6,12,18,24-tetrapentyl-1-oxa-4,7,10,13,16,19,22-heptaazacyclotetracosan-2,5,8,11,14,17,20,23-octaone”, for which, in data set [1] (PyBOP/DIPEA, DMF, 5.0 mM), the ring closure, yield after HPLC came to 16%. “(3R,6S,9R,12S,15R,18S,21R,24S)-3,4,9,10,13,15,16,19,21,22-decamethyl-6,12,18,24-tetrapentyl-1,7-dioxa-4,10,13,16,19,22-hexaazacyclotetracosan-2,5,8,11,14,17,20,23-octaone” showed a ring closure, yield after HPLC in data set [1] (PyBOP/DIPEA, DMF, 2.9 mM) of 4%. In turn, “(3R,6S,9R,12S,15R,18S,21R,24S)-3,4,9,10,15,16,19,21,22-nonamethyl-6,12,18,24-tetrapentyl-1,7,13-trioxa-4,10,16,19,22-pentaazacyclotetracosan-2,5,8,11,14,17,20,23-octaone” displayed a ring closure, yield after HPLC in data set [1] (PyBOP/DIPEA, DMF, 3.6 mM) of 5.1%. In the case of “(3R,6S,9R,12S,15R,18S,21R,24S)-3,4,9,10,15,16,21-heptamethyl-6,12,18,24-tetrapentyl-1,7,13,19-tetraoxa-4,10,16,22-tetraazacyclotetracosan-2,5,8,11,14,17,20,23-octaone [1.1]”, on RyR2, the “Normalized Calcium Leak” value is on record as 1.02 ± 0.71, the “Calcium spark Amplitude (normalized to vehicle)” value was 1.01 ± 0.25, the “Calcium spark Leak (normalized to vehicle)” value is listed as 1.02 ± 0.71 and the “Calcium spark Mass (normalized to vehicle)” value is recorded as 0.98 ± 0.59. Moreover, the “Calcium spark Frequency (normalized to vehicle)” value on RyR2 was 1.03 ± 0.27. With “(3R,6S,9R,12S,15R,18S,21R,24S)-3,4,9,15,16,21-hexamethyl-6,12,18,24-tetrapentyl-1,7,13,19-tetraoxa-4,10,16,22-tetraazacyclotetracosan-2,5,8,11,14,17,20,23-octaone [1.3]”, on RyR2, the “Normalized Calcium Leak” value is listed as 0.90 ± 0.60, the “Calcium spark Amplitude (normalized to vehicle)” value was 1.04 ± 0.28, the “Calcium spark Leak (normalized to vehicle)” value is recorded as 0.90 ± 0.60 and the “Calcium spark Mass (normalized to vehicle)” value was 0.91 ± 0.48. In addition, the “Calcium spark Frequency (normalized to vehicle)” value at RyR2 is reported as 0.96 ± 0.29.

As to “(3R,6S,9R,12S,15R,18S,21R,24S)-3,4,9,15,21-pentamethyl-6,12,18,24-tetrapentyl-1,7,13,19-tetraoxa-4,10,16,22-tetraazacyclotetracosan-2,5,8,11,14,17,20,23-octaone [1.4]”, on RyR2, the “Normalized Calcium Leak” value is given as 0.77 ± 0.53, the “Calcium spark Amplitude (normalized to vehicle)” value was 0.93 ± 0.24, the “Calcium spark Leak (normalized to vehicle)” value is recorded as 0.77 ± 0.53 and the “Calcium spark Mass (normalized to vehicle)” value is reported as 0.84 ± 0.32. Moreover, at RyR2, the “Calcium spark Frequency (normalized to vehicle)” value is 0.90 ± 0.36. The substance “(3S,6R,9S,12R,15S,18R,21S,24R)-1,6,7,12,13,18,19,24-Octamethyl-3,9,15,21-tetrapentyl-1,4,7,10,13,16,19,22-octaazacyclotetracosan-2,5,8,11,14,17,20,23-octaone” displayed a ring closure, yield after HPLC in data set [1] (PyBOP/DIEA, DMF, 4.6 mM, 0.0 °C) of 11%.

As for “H-dAla-Hhp-dAla-Hhp-dAla-Hhp-dAla-Hhp-OH”, the ring closure, yield after HPLC in data set [1] (setting [2]) was found to be 12%. Turning to “H-dAla-Hhp-dAla-Hhp-dMeAla-Hhp-dMeAla-Hhp-OH?”, in data set [1] (setting [3]), the ring closure, yield after HPLC worked out at 11%. Regarding “H-dAla-Hhp-dAla-MeAhp-dAla-Hhp-dAla-MeAhp-OH?”, the ring closure, yield after HPLC in data set [1] (setting [2]) came to 6%. The substance “H-dAla-Hhp-dMeAla-Hhp-dMeAla-Hhp-dMeAla-Hhp-OH” returned a ring closure, yield after HPLC in data set [1] (setting [3]) of 18%. For the substance “H-dAla-MeAhp-dAla-MeAhp-dAla-MeAhp-dAla-MeAhp-OH”, the ring closure, yield after HPLC in data set [1] (setting [2]) worked out at 7%.

As to “H-dAla-MeAhp-dAla-MeAhp-dMeAla-MeAhp-dMeAla-MeAhp-OH?”, the ring closure, yield after HPLC in data set [1] (setting [2]) is 8%. Still for that read-out and setting: the value for “H-dAla-MeAhp-dMeAla-MeAhp-dMeAla-MeAhp-dMeAla-MeAhp-OH?” was 8%; that for “H-dMeAla-Ahp-dMeAla-Hhp-dMeAla-Ahp-dMeAla-Hhp-OH” was 10%; that for “H-dMeAla-Hhp-dAla-Hhp-dAla-Hhp-dAla-Hhp-OH” was 23%.

The substance “H-dMeAla-Hhp-dMeAla-Ahp-dMeAla-Ahp-dMeAla-Ahp-OH?” had a ring closure, yield after HPLC in data set [1] (setting [2]) of 7%. In data set [1] (setting [2]), “H-dMeAla-Hhp-dMeAla-Hhp-dMeAla-Ahp-dMeAla-Ahp-OH?” registered a ring closure, yield after HPLC of 7%. “H-dMeAla-Hhp-dMeAla-Hhp-dMeAla-Hhp-dMeAla-Ahp-OH” returned a ring closure, yield after HPLC in data set [1] (setting [2]) of 6%. With “H-dMeAla-Hhp-dMeAla-Hhp-dMeAla-MeAhp-dMeAla-MeAhp-OH”, in data set [1] (setting [2]), the ring closure, yield after HPLC turned out to be 4%. Same read-out and setting: under “H-dMeAla-MeAhp-dAla-MeAhp-dAla-MeAhp-dAla-MeAhp-OH” stands 5%. Still for that read-out and setting: under “H-dMeAla-MeAhp-dAla-MeAhp-dMeAla-MeAhp-dAla-MeAhp-OH” stands 7%; under “H-dMeAla-MeAhp-dMeAla-Ahp-dMeAla-Ahp-dMeAla-Ahp-OH”, 9%. Still for that read-out and setting: the value for “H-dMeAla-MeAhp-dMeAla-Ahp-dMeAla-MeAhp-dMeAla-Ahp-OH” was 7%. In the case of “H-dMeAla-MeAhp-dMeAla-Hhp-dMeAla-Hhp-dMeAla-Hhp-OH”, the ring closure, yield after HPLC in data set [1] (setting [2]) came to 5%. Regarding “H-dMeAla-MeAhp-dMeAla-MeAhp-dMeAla-Ahp-dMeAla-Ahp-OH?”, the ring closure, yield after HPLC in data set [1] (setting [2]) was found to be 6%. In the case of “H-dMeAla-MeAhp-dMeAla-MeAhp-dMeAla-MeAhp-dMeAla-Ahp-OH?”, the ring closure, yield after HPLC in data set [1] (setting [2]) turned out to be 5%. Regarding “H-dMeAla-MeAhp-dMeAla-MeAhp-dMeAla-MeAhp-dMeAla-Hhp-OH?”, the ring closure, yield after HPLC in data set [1] (setting [2]) was found to be 16%. As to “H-dMeAla-MeAhp-dMeAla-MeAhp-dMeAla-MeAhp-dMeAla-MeAhp-OH?”, the ring closure, yield after HPLC in data set [1] (setting [2]) is 8%.
